# Assay results reported in PMC11987024, “Kinetic Steering of Amyloid Formation and Polymorphism by Canagliflozin, a Type-2 Diabetes Drug” (Journal of the American Chemical Society, 2025).
# Positions count from the first letter of the chain named. pKd: −log10 of the molar value.
# Key:
# [1] = target: T1, Islet amyloid polypeptide (IAPP, or amylin), wild-type (Homo sapiens, UniProt P10997); assay: T1ρ and WaterLOGSY ligand-observed NMR; type: binding; details: IAPP monomer; 20 μM IAPP, 100 μM compound, 25 mM sodium phosphate pH 6.8, 1% v/v DMSO-d6, 5 °C
# T1 construct: SEC-purified monomer; N-terminally biotinylated at Lys1 (PEG4) for SPR only; cut from pro-islet amyloid polypeptide
# T1 sequence (P10997 34-70): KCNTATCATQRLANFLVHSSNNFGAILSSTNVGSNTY
# [2] = target: T2, Islet amyloid polypeptide (IAPP, or amylin), wild-type (Homo sapiens, UniProt P10997, S53G); assay: ThT fluorescence amyloid assembly assay; type: biochemical; details: 160 mM ammonium acetate pH 7.4, 1% v/v DMSO, 30 °C; inhibition of amyloid formation
# T2 construct: SEC-purified monomer; N-terminally biotinylated at Lys1 (PEG4) for SPR only; cut from pro-islet amyloid polypeptide
# T2 sequence (P10997 34-70 S53G): T1 sequence (P10997 34-70) with S20G
# [3] = target: T1, Islet amyloid polypeptide (IAPP, or amylin), wild-type; assay: ThT fluorescence amyloid assembly assay; type: biochemical; details: 10 μM IAPP, 50 μM compound, 160 mM ammonium acetate pH 7.4, 1% v/v DMSO, 30 °C, quiescent; mainly inhibits primary nucleation
# [4] = target: T1, Islet amyloid polypeptide (IAPP, or amylin), wild-type; assay: SPR, biotinylated IAPP on streptavidin chip; type: binding
SMILES,ligand binding (observed by NMR) [1],ThT fluorescence amyloid assembly assay [2],fold-change in half-time of amyloid formation at 50 μM [3] [fold],pKd [4]
Cc1ccc([C@@H]2O[C@H](CO)[C@@H](O)[C@H](O)[C@H]2O)cc1Cc1ccc(-c2ccc(F)cc2)s1 [canagliflozin],further evidence that canagliflozin binds IAPP monomers with strong changes in all protons,only canagliflozin was able to inhibit amyloid formation by the familial S20G variant of IAPP,1.55 ± 0.22,< 3.82
COc1cc2nc(N3CCN(C(=O)C4COc5ccccc5O4)CC3)nc(N)c2cc1OC (centres unmarked) [doxazosin],–,–,1.61 ± 0.29,–
